Results taken from patent US20040106653A1, “Aminoalcohol derivatives” (FUJISAWA PHARMACEUTICAL CO., LTD., priority 2002, published 2004).

Test system: carbachol-induced increase in intravesical pressure (IVP) in anesthetized dog
Assay: Effect on the increase in intravesical pressure induced by carbachol in anesthetized dog
Assay type: in vivo
Conditions: 0.032 mg/kg, intravenous; female Beagle dogs under halothane anesthesia; carbachol 1.8 μg/kg
Description: Effect on the increase in intravesical pressure induced by carbachol in anesthetized dog Test Method Female Beagle dogs weighing 8.0-15.0 kg were fasted for 24 hours and maintained under halothane anesthesia. A 12F Foley catheter was lubricated with water soluble jelly, inserted into the urethral orifice and advanced approximately 10 cm until the balloon tip was placed well inside the bladder. The balloon was then inflated with 5 ml of room air and catheter slowly withdrawn just part the first resistance that is felt at the bladder neck. Urine was completely drained out through the catheter, and 30 ml of biological saline was infused. The catheter was connected to pressure transducer, and intravesical pressure was continuously recorded. Intravenous administration of test compound (I) inhibited carbachol (1.8 μg/kg)-induced increase in intravesical pressure (IVP).

## C[C@H](Cc1ccc(S(=O)(=O)c2ccc(C(=O)N(C)CC(=O)O)cc2)cc1)NC[C@H](O)c1cccc(Cl)c1.Cl [Test Compound (1), [[4-[[4-[(2R)-2-[[(2R)-2-(3-Chlorophenyl)-2-hydroxyethyl]amino]propyl]phenyl]sulfonyl]benzoyl]-(methyl)amino]acetic acid hydrochloride]
  % inhibition of carbachol-induced increase in IVP: 80.8%
